Data reported in patent EP4141110A1 (priority 2020, dated 2021).
Where “and” joins values, the source holds several entries; their conditions need not be identical. Equal values may be shown once.

Columns and labels:
PC3 line = format: cell-based
mice = details: mouse, in vivo

Row | Compound | % of PC3 death in the mixture with iRGD + 6APA ligand (PC3 line) | Therapeutic ratio × 10^-7 (mice) | DCL (mice) [µg/dL] | dCL/ daggl (mice) | daggl (cell cultures) [pg/dL]
1 | O=[N+]([O-])[O-].O=[N+]([O-])[O-].[Cu+2] [Cu(NO3)2] | 85% and 82% and 65% | 25 × 10^-7 | – | – | –
2 | O=C([O-])[O-].O=C([O-])[O-].O=C([O-])[O-].[Tl+3].[Tl+3] [Tl2(CO3)3] | 95% and 92% and 89% | 14.6 × 10^-7 | 19 | 0.5 | 9
3 | O=S(=O)(O)[S-].O=S(=O)(O)[S-].[Au].[Na+].[Na+].[Na+] [AuH2Na3O6S4, aurothiosulfate] | 75% and 70% and 56% | 50 × 10^-7 | – | – | –
4 | N.N.[Cl][Pt][Cl] [cisplatin (cis-Pt(N H3)2 Cl2), cisplatin (cis-dichlorodiamminplatin) (II), reference compound] | 95% and 88% and 82% | 7 × 10^-7 | 3.5 | 5 | 2
5 | O=[N+]([O-])[O-].O=[N+]([O-])[O-].[Zn+2] [Zn(NO3)2] | – | 50 × 10^-7 | – | – | –
6 | [Na+].[O]=[V](=[O])[O-] [NaVO3] | 70% and 55% and 40% | 67 × 10^-7 | 2.0 | 1 | 1
7 | O=[N+]([O-])[O-].[Ag+] [AgNO3] | 80% and 75% and 65% | 180 × 10^-7 | – | – | –
8 | [Cl][Pt-2]([Cl])([Cl])([Cl])([Cl])[Cl].[NH4+].[NH4+] [(NH4)2[PtCl6], ammonium hexachloroplatinate (IV)] | 95% and 92% and 90% | 5 × 10^-7 | – | – | –
9 | O=[N+]([O-])[O-].O=[N+]([O-])[O-].O=[N+]([O-])[O-].[Ga+3] [Ga(NO3)3, gallium trinitrate] | 90% and 82% and 75% | 9.2 × 10^-7 | 35 | 8 | 20
10 | O=C([O-])[O-].[Tl+].[Tl+] [Tl2CO3] | 95% and 85% and 80% | 13.1 × 10^-7 | 21 | 2 | 12
